The results in this text go back to BindingDB's records for doi:10.1021/bi0488799 (Glaxosmithkline, 2004).

Holding throughout (details): pH 5.5; 30 °C
Assay [1] deals with T1, Dimer of Gag-Pol polyprotein [489-587,I539V] (Human immunodeficiency virus 1, UniProt P04585, I539V).
T1 construct: 489-587
Put plainly: Kinetic Competitive Displacement Assay. As to the method:
The method was a competitive displacement assay used to determine binding affinities of other inhibitors relative to that of GW0385. The inhibitor of unknown affinity was used to displace [3H]GW0385 from enzyme-bound [3H]GW0385 (E[3H]GW0385). From the concentration of E[3H]GW0385 at equilibrium, the concentrations of enzyme-bound and free inhibitors were calculated, and the ratio of the Ki value of the unknown to that of GW0385 was determined (Ki,unknown/Ki,GW0385).

The target in assay [2] is T2, Dimer of Gag-Pol polyprotein [489-587,L499I,L508Q,K509R,E524D,M525I,S526N,M535I,I539V,I543V,I551V,L552P,A560V,V571A,L579M] (Human immunodeficiency virus 1, UniProt P04585, A560V/E524D/I539V/I543V/I551V/K509R/L499I/L508Q/L552P/L579M/M525I/M535I/S526N/V571A).
T2 construct: 489-587
The assay can be described thus: Fluorometric Activity Assay. As to the method:
(§1) Enzymatic activity was determined with fluorogenic substrate in the presence and absence of inhibitor. The fluorescence increase due to hydrolysis of the substrate was monitored with an excitation filter of wavelength 340 nm and an emission filter of wavelength 420. Values for the inhibition constants (Ki) were determined by conventional steady-state kinetic techniques.

The target of assay [3] is T3, Dimer of Gag-Pol polyprotein [489-587,M535I,L552P,A560V,V571F,I573V] (Human immunodeficiency virus 1, UniProt P04585, A560V/I573V/L552P/M535I/V571F).
T3 construct: 489-587
Put plainly: Fluorometric Activity Assay. As to the method: as §1

Assay [4] has as its target T4, Dimer of Gag-Pol polyprotein [489-587] (Human immunodeficiency virus 1, UniProt P12497).
T4 construct: 489-587
The assay can be described thus: Fluorometric Activity Assay. Here is the method:
as §1

Assay [5] addresses T2, Dimer of Gag-Pol polyprotein [489-587,L499I,L508Q,K509R,E524D,M525I,S526N,M535I,I539V,I543V,I551V,L552P,A560V,V571A,L579M]. Put plainly: GW0385 Assay. Here is the method: (§2) The assay method employed kinetic determinations of values for k1 and k-1, from which value of inhibition constant (Ki ) was determined (k-1/k1). The k1 is calculated from spectrofluorometric data in the presence of saquinavir. The k-1 is calculated from the time course for displacement of [3H]GW0385 from E[3H]GW0385 by nonlabeled GW0385.

The target of assay [6] is T1, Dimer of Gag-Pol polyprotein [489-587,I539V]. Put plainly: GW0385 Assay. As to the method:
as §2

The structures appear in SMILES notation.

For `CC(C)CN(C[C@@H](O)[C@H](Cc1ccc(OCc2ccccn2)cc1)NC(=O)O[C@H]1CO[C@H]2OCC[C@H]21)S(=O)(=O)c1ccc2c(c1)OCO2` [(3R,3aS,6aR)-hexahydrofuro[2,3-b]furan-3-yl N-[(2S,3R)-4-[2H-1,3-benzodioxole-5-(2-methylpropyl)sulfonamido]-3-hydroxy-1-[4-(pyridin-2-ylmethoxy)phenyl]butan-2-yl]carbamate], the Ki (commonly a measure of affinity in units of concentration, obtained from inhibition or displacement) was 2.6 pM in assay [1] and 1.7 pM in assay [2].
On the same counts, the results for `CC(C)CN(C[C@@H](O)[C@H](Cc1ccc(OCCc2cccs2)cc1)NC(=O)O[C@H]1CO[C@H]2OCC[C@H]21)S(=O)(=O)c1ccc2c(c1)OCO2` [(3R,3aS,6aR)-hexahydrofuro[2,3-b]furan-3-yl N-[(2S,3R)-4-[2H-1,3-benzodioxole-5-(2-methylpropyl)sulfonamido]-3-hydroxy-1-{4-[2-(thiophen-2-yl)ethoxy]phenyl}butan-2-yl]carbamate] are 3.9 pM and 2.4 pM.
`CNC(=O)OCCCC(C)(C)CN(C[C@@H](O)[C@H](Cc1ccccc1)NC(=O)O[C@H]1CO[C@H]2OCC[C@H]21)S(=O)(=O)c1ccc2c(c1)OCO2` [(3R,3aS,6aR)-hexahydrofuro[2,3-b]furan-3-yl N-[(2S,3R)-4-[2H-1,3-benzodioxole-5-({2,2-dimethyl-5-[(methylcarbamoyl)oxy]pentyl})sulfonamido]-3-hydroxy-1-phenylbutan-2-yl]carbamate]: the results for the Ki in assay [1], in assay [3] and in assay [2] were 27 pM, 0.025 nM and 54.4 pM, respectively.
On the same counts, the results for `CCOC(=O)NCCCCC(C)(C)CN(C[C@@H](O)[C@H](Cc1ccccc1)NC(=O)O[C@H]1CO[C@H]2OCC[C@H]21)S(=O)(=O)c1ccc2c(c1)OCO2` [(3R,3aS,6aR)-hexahydrofuro[2,3-b]furan-3-yl N-[(2S,3R)-4-[2H-1,3-benzodioxole-5-({6-[(ethoxycarbonyl)amino]-2,2-dimethylhexyl})sulfonamido]-3-hydroxy-1-phenylbutan-2-yl]carbamate] are 4.6 pM, 0.0043 nM and 1.2 pM.
For `CC(C)CN(C[C@@H](O)[C@H](Cc1ccccc1)NC(=O)O[C@H]1CCOC1)S(=O)(=O)c1ccc(N)cc1` [VX-478], the Ki in assay [4] was 0.057 nM. In other words, the picomolar range.
On to `Cc1nc(COc2ccc(C[C@H](NC(=O)O[C@H]3CO[C@H]4OCC[C@H]43)[C@H](O)CN(CC(C)C)S(=O)(=O)c3ccc4c(c3)OCO4)cc2)cs1` [[3H]GW0385], for which the Ki in assay [5] was determined as 3.4 pM; in assay [6], 2 pM.
